Drawing on ChEMBL document CHEMBL1131674, “Synthesis and cytotoxic activities of 6-chloro-7-arylamino-5,8-isoquinolinediones” (Bioorg Med Chem Lett, 1999), this text covers IC50 for 26 molecules.

What all share (type): functional, cell-based, Homo sapiens
The subject of test [1] is SK-OV-3. As to the kind of experiment: In vitro cytotoxic activity against SK-OV-3 (ovarian) using SRB (sulforhodamine B) assay.
The subject of test [2] is SK-MEL-2. As to the kind of experiment: In vitro cytotoxic activity against SK-MEL-2 (melanoma) using SRB (sulforhodamine B) assay.
For test [3], the system named is XF498. As to the kind of experiment: In vitro cytotoxic activity against XF 498 (CNS) using SRB (sulforhodamine B) assay.
The subject of test [4] is HCT-15. As to the kind of experiment: In vitro cytotoxic activity against HCT-15 (colon) using SRB (sulforhodamine B) assay.
The subject of test [5] is A549. As to the kind of experiment: In vitro cytotoxic activity against A 549 (non-small cell lung) using SRB (sulforhodamine B) assay.
Setting [6] is: Homo sapiens, SK-OV-3, read-out: IC50.
Where [7] appears, read: Homo sapiens, SK-MEL-2, read-out: IC50.
[8] abbreviates: Homo sapiens, XF498, read-out: IC50.
Where [9] appears, read: Homo sapiens, HCT-15, read-out: IC50.
Where [10] appears, read: Homo sapiens, A549, read-out: IC50.

Values after ≈ are worked out from the molar mass of the structure shown.

The IC50 is the concentration that inhibits the measured activity by half. Consider `CCOc1ccc(NC2=C(Cl)C(=O)c3cccnc3C2=O)cc1`, for which the IC50 in test [1] (setting [6]) was 0.33 µg/mL (≈ 1 µM); in test [2] (setting [7]) it was 0.34 µg/mL (≈ 1.03 µM); in test [3] (setting [8]), 0.55 µg/mL (≈ 1.67 µM); in test [4] (setting [9]), 0.32 µg/mL (≈ 0.973 µM); in test [5] (setting [10]) it was 0.96 µg/mL (≈ 2.92 µM).
For `CCOc1ccc(NC2=C(Cl)C(=O)c3ccncc3C2=O)cc1`, in that order: 0.34 µg/mL (≈ 1.03 µM), 0.04 µg/mL (≈ 0.122 µM), 0.27 µg/mL (≈ 0.821 µM), 0.03 µg/mL (≈ 0.0913 µM) and 0.42 µg/mL (≈ 1.28 µM).
For `Cc1ccc(NC2=C(Cl)C(=O)c3ccncc3C2=O)cc1`, the IC50 stood at 1.54 µg/mL (≈ 5.16 µM) in test [1] (setting [6]); 0.17 µg/mL (≈ 0.569 µM) in test [2] (setting [7]); 1.06 µg/mL (≈ 3.55 µM) in test [3] (setting [8]); 0.11 µg/mL (≈ 0.368 µM) in test [4] (setting [9]); 1.22 µg/mL (≈ 4.08 µM) in test [5] (setting [10]).
As for `O=C1C(Cl)=C(Nc2ccc(Cl)cc2)C(=O)c2ncccc21`, the 50% inhibitory concentration (IC50) in test [1] (setting [6]) is 1.33 µg/mL (≈ 4.17 µM); in test [2] (setting [7]) it was 1.3 µg/mL (≈ 4.07 µM); in test [3] (setting [8]), 3.31 µg/mL (≈ 10.4 µM); in test [4] (setting [9]) it was 0.34 µg/mL (≈ 1.07 µM); in test [5] (setting [10]) it was 5.03 µg/mL (≈ 15.8 µM).
The like results for `Cc1ccc(NC2=C(Cl)C(=O)c3cccnc3C2=O)cc1` were, in that order, 1.27 µg/mL (≈ 4.25 µM), 0.42 µg/mL (≈ 1.41 µM), 1.26 µg/mL (≈ 4.22 µM), 0.33 µg/mL (≈ 1.1 µM) and 1.14 µg/mL (≈ 3.82 µM).
For `O=C1/C(=N/c2ccc(O)cc2)C(Cl)=C(O)c2cccnc21`, in that order: 1.27 µg/mL (≈ 4.22 µM), 0.47 µg/mL (≈ 1.56 µM), 0.97 µg/mL (≈ 3.23 µM), 0.86 µg/mL (≈ 2.86 µM) and 1.56 µg/mL (≈ 5.19 µM).
For `N#Cc1ccc(NC2=C(Cl)C(=O)c3ccncc3C2=O)cc1`, in that order: 0.21 µg/mL (≈ 0.678 µM), 0.22 µg/mL (≈ 0.71 µM), 0.3 µg/mL (≈ 0.969 µM), 0.13 µg/mL (≈ 0.42 µM) and 0.8 µg/mL (≈ 2.58 µM).
Turning to `O=C1C(Cl)=C(Nc2ccc(CCO)cc2)C(=O)c2cnccc21`, the IC50 in test [1] (setting [6]) was 0.63 µg/mL (≈ 1.92 µM); in test [2] (setting [7]) it was 0.08 µg/mL (≈ 0.243 µM); in test [3] (setting [8]), 0.06 µg/mL (≈ 0.183 µM); in test [4] (setting [9]), 0.18 µg/mL (≈ 0.548 µM); in test [5] (setting [10]), 0.61 µg/mL (≈ 1.86 µM).
For `O=C1C(Cl)=C(Nc2ccccc2)C(=O)c2cnccc21`, in that order: 0.86 µg/mL (≈ 3.02 µM), 0.52 µg/mL (≈ 1.83 µM), 0.96 µg/mL (≈ 3.37 µM), 0.1 µg/mL (≈ 0.351 µM) and 1.28 µg/mL (≈ 4.5 µM).
The like results for `O=C1C(Cl)=C(Nc2ccc(Br)cc2)C(=O)c2ncccc21` were, in that order, 0.92 µg/mL (≈ 2.53 µM), 1.26 µg/mL (≈ 3.47 µM), 2.83 µg/mL (≈ 7.78 µM), 0.34 µg/mL (≈ 0.935 µM) and 4.28 µg/mL (≈ 11.8 µM).
Consider `O=C1C(Cl)=C(Nc2ccccc2)C(=O)c2ncccc21`, for which the IC50 in test [1] (setting [6]) was found to be 1.34 µg/mL (≈ 4.71 µM); in test [2] (setting [7]), 1.42 µg/mL (≈ 4.99 µM); in test [3] (setting [8]), 1.33 µg/mL (≈ 4.67 µM); in test [4] (setting [9]), 0.74 µg/mL (≈ 2.6 µM); in test [5] (setting [10]), 2.3 µg/mL (≈ 8.08 µM).
Turning to `O=C1C(Cl)=C(Nc2ccc(Cl)cc2)C(=O)c2cnccc21`, the IC50 in test [1] (setting [6]) was 1.86 µg/mL (≈ 5.83 µM); in test [2] (setting [7]), 1.22 µg/mL (≈ 3.82 µM); in test [3] (setting [8]) it was 1.54 µg/mL (≈ 4.83 µM); in test [4] (setting [9]), 0.31 µg/mL (≈ 0.971 µM); in test [5] (setting [10]) it was 1.27 µg/mL (≈ 3.98 µM).
Consider `COc1ccc(NC2=C(Cl)C(=O)c3cccnc3C2=O)cc1`, for which the concentration for half-maximal inhibition (IC50) in test [1] (setting [6]) was determined as 1.3 µg/mL (≈ 4.13 µM); in test [2] (setting [7]), 1.33 µg/mL (≈ 4.23 µM); in test [3] (setting [8]), 1.26 µg/mL (≈ 4 µM); in test [4] (setting [9]), 0.33 µg/mL (≈ 1.05 µM); in test [5] (setting [10]) it was 1.27 µg/mL (≈ 4.04 µM).
Turning to `O=C1C(Cl)=C(Nc2ccc(I)cc2)C(=O)c2cnccc21`, the concentration for half-maximal inhibition (IC50) in test [1] (setting [6]) came to 0.29 µg/mL (≈ 0.706 µM); in test [2] (setting [7]), 0.23 µg/mL (≈ 0.56 µM); in test [3] (setting [8]), 0.22 µg/mL (≈ 0.536 µM); in test [4] (setting [9]), 0.1 µg/mL (≈ 0.244 µM); in test [5] (setting [10]) it was 1.96 µg/mL (≈ 4.77 µM).
On to `O=C1C(Cl)=C(Nc2ccc(F)cc2)C(=O)c2cnccc21`, for which the half-maximal inhibitory concentration (IC50) was found to be 0.17 µg/mL (≈ 0.562 µM) in test [1] (setting [6]); 0.13 µg/mL (≈ 0.429 µM) in test [2] (setting [7]); 0.49 µg/mL (≈ 1.62 µM) in test [3] (setting [8]); 0.07 µg/mL (≈ 0.231 µM) in test [4] (setting [9]); 0.66 µg/mL (≈ 2.18 µM) in test [5] (setting [10]).
For `O=C1C(Cl)=C(Nc2ccc(Br)cc2)C(=O)c2cnccc21`, in that order: 0.97 µg/mL (≈ 2.67 µM), 0.66 µg/mL (≈ 1.82 µM), 1.28 µg/mL (≈ 3.52 µM), 0.18 µg/mL (≈ 0.495 µM) and 1.1 µg/mL (≈ 3.03 µM).
For `N#Cc1ccc(NC2=C(Cl)C(=O)c3cccnc3C2=O)cc1`, in that order: 0.55 µg/mL (≈ 1.78 µM), 0.6 µg/mL (≈ 1.94 µM), 1.47 µg/mL (≈ 4.75 µM), 1.45 µg/mL (≈ 4.68 µM) and 1.7 µg/mL (≈ 5.49 µM).
For `O=C1C(Cl)=C(Nc2ccc(I)cc2)C(=O)c2ncccc21`, in that order: 1.62 µg/mL (≈ 3.95 µM), 3.3 µg/mL (≈ 8.04 µM), 3.61 µg/mL (≈ 8.79 µM), 1.27 µg/mL (≈ 3.09 µM) and 4.29 µg/mL (≈ 10.4 µM).
Consider `O=C1/C(=N/c2ccc(O)cc2)C(Cl)=C(O)c2ccncc21`, for which the IC50 in test [1] (setting [6]) is 0.3 µg/mL (≈ 0.998 µM); in test [2] (setting [7]), 0.06 µg/mL (≈ 0.2 µM); in test [3] (setting [8]), 0.32 µg/mL (≈ 1.06 µM); in test [4] (setting [9]), 0.05 µg/mL (≈ 0.166 µM); in test [5] (setting [10]) it was 0.36 µg/mL (≈ 1.2 µM).
For `COc1ccc(NC2=C(Cl)C(=O)c3ccncc3C2=O)cc1`, the half-inhibitory concentration (IC50) in test [1] (setting [6]) was found to be 0.28 µg/mL (≈ 0.89 µM); in test [2] (setting [7]), 0.02 µg/mL (≈ 0.0635 µM); in test [3] (setting [8]), 0.31 µg/mL (≈ 0.985 µM); in test [4] (setting [9]), 0.02 µg/mL (≈ 0.0635 µM); in test [5] (setting [10]) it was 0.5 µg/mL (≈ 1.59 µM).
Consider `O=C1C(Cl)=C(Nc2ccc(F)cc2)C(=O)c2ncccc21`, for which the 50% inhibitory concentration (IC50) in test [1] (setting [6]) came out at 0.5 µg/mL (≈ 1.65 µM); in test [2] (setting [7]), 1.39 µg/mL (≈ 4.59 µM); in test [3] (setting [8]) it was 0.36 µg/mL (≈ 1.19 µM); in test [4] (setting [9]), 0.18 µg/mL (≈ 0.595 µM); in test [5] (setting [10]), 1.25 µg/mL (≈ 4.13 µM).
For `CCc1ccc(NC2=C(Cl)C(=O)c3cccnc3C2=O)cc1`, in that order: 1.35 µg/mL (≈ 4.32 µM), 1.97 µg/mL (≈ 6.3 µM), 0.66 µg/mL (≈ 2.11 µM), 1.39 µg/mL (≈ 4.44 µM) and 1.35 µg/mL (≈ 4.32 µM).
For `CCc1ccc(NC2=C(Cl)C(=O)c3ccncc3C2=O)cc1`, in that order: 0.34 µg/mL (≈ 1.09 µM), 0.07 µg/mL (≈ 0.224 µM), 0.33 µg/mL (≈ 1.06 µM), 0.05 µg/mL (≈ 0.16 µM) and 0.62 µg/mL (≈ 1.98 µM).
As for `O=C1C(Cl)=C(Nc2ccc(CCO)cc2)C(=O)c2ncccc21`, the IC50 in test [1] (setting [6]) was 0.42 µg/mL (≈ 1.28 µM); in test [2] (setting [7]), 0.36 µg/mL (≈ 1.1 µM); in test [3] (setting [8]), 0.52 µg/mL (≈ 1.58 µM); in test [4] (setting [9]), 0.48 µg/mL (≈ 1.46 µM); in test [5] (setting [10]), 1.11 µg/mL (≈ 3.38 µM).
For `COC1=C(N)C(=O)c2nc(-c3nc(C(=O)O)c(C)c(-c4ccc(OC)c(OC)c4O)c3N)ccc2C1=O` [STREPTONIGRIN], in that order: 0.28 µg/mL (≈ 0.553 µM), 0.02 µg/mL (≈ 0.0395 µM), 0.31 µg/mL (≈ 0.612 µM), 0.02 µg/mL (≈ 0.0395 µM) and 0.33 µg/mL (≈ 0.652 µM).
With CISPLATIN, the half-maximal inhibitory concentration (IC50) in test [1] (sk-ov-3) turned out to be 2.07 µg/mL; in test [2] (sk-mel-2), 1.38 µg/mL; in test [3] (xf498), 2.74 µg/mL; in test [4] (hct-15), 2.9 µg/mL; in test [5] (a549), 1.8 µg/mL.
